Results on one substance are retold here after patent US20160000762A1, “IMPROVING COGNITIVE FUNCTION” (THE REGENTS OF THE UNIVERSITY OF CALIFORNIA, priority 2013, published 2016).

In one test the test system is dendritic spines. The experiment in a line: Golgi staining, dendritic spines of wild-type mice. It is filed as in vivo. The following applies: 30 mg/kg, 2 weeks. As to the method: Golgi staining and morphological analysis of dendritic spines. To analyze dendritic spine density and morphology in brain, FD RAPID GOLGISTAIN KIT™ (FD NeuroTechnologies, Ellicott City, Md., USA) was used. Dissected mouse brains were immersed in Solution A and B for 2 weeks in dark conditions at room temperature and transferred into Solution C for 24 h at 4° C. Brains were sliced using a VT1000S Vibratome (Leica, Bannockburn, Ill., USA) at 150 μm thickness. Dendritic images were acquired by Axioplan 2 (Zeiss, Oberkochen, Germany) under brightfield microscopy. Spine width, length, and linear density of cortical layers II/III and CA1 of hippocampus were measured using Scion image software (Scion Corporation, Frederick, Md., USA). Images were coded, and dendritic spines counted in a blinded manner. Spines from 0.2 to 2 μm in length were included for analysis. All morphological analysis was done blind to experimental conditions.

Test [1] can be described thus: Morris water maze, wild-type mice. It counts as in vivo, wild-type (B6) mice. An excerpt: Morris water maze. To examine the effects of BTA-EG4 on cognitive performance, we injected wild-type (B6) mice with BTA-EG4 daily for one week, and then began behavior testing. We continued daily injections for another week, for a total treatment course of two weeks. The Morris water maze task included training mice to locate a submerged, hidden platform using extramaze visuospatial cues. This system consists of a large, white circular pool with a Plexiglas platform painted white and submerged below the surface of the water, made opaque by the addition of white non-toxic paint. During training, the platform was hidden 14 inches from the side wall in one quadrant of the maze. The animals were gently placed at random into one of the four quadrants, separated by 90°, and facing the wall. The time required (latency) to locate the hidden platform was recorded by a blinded observer and tracked using TOPSCAN, and was limited to 90 sec. Animals failing to find the platform within 90 sec were assisted to the platform. Animals were allowed to remain on the platform for 15 sec on the first trial and 10 sec on subsequent trials. 24 hrs after the final learning trial, a probe trial of 90 sec was given. We recorded the percentage of time spent in the quadrant where the platform was previously located. As a control experiment, we tested motor impairment or visual discriminative ability. The animals were required to locate a clearly visible black platform (placed in a different location), raised above the water surface, at least 12 hrs after the last trial.

Test [2] deals with primary hippocampal neurons. The experiment in a line: Synaptic marker immunostaining, primary hippocampal neurons. It is filed as cell-based, Sprague-Dawley rats. The following applies: 5 μM, 24 h. The procedure:
Primary neuron culture and immunostaining. Primary hippocampal neurons from E19 Sprague-Dawley rats were cultured at 150 cells/mm^2 as previously described (Pak et al., 2001). Neurons were transfected using Lipofectamine™ 2000 (Invitrogen, Carlsbad, Calif., USA) or calcium phosphate precipitation with GFP+PLL, GFP+APP shRNA, or GFP+APP and treated with BTA-EG4. The following antibodies were used: mouse anti-GFP (Novus Biologicals, 9F9.F9), rabbit anti-GFP (Invitrogen, A11122), rabbit anti-GluR1 (Calbiochem, PC246), mouse anti-GluR2 (BD Pharmagen, 556341), mouse anti-postsynaptic density (PSD)-95 (NeuroMabs, Davis, Calif., USA), mouse anti-Synaptophysin (Sigma Aldrich, s5768), rabbit APP N-terminal (Sigma-Aldrich, A8967), anti-Ras (BD Biosciences, 610001), anti-RasGRF1 (Santa Cruz, C-20; BD Biosciences, 610149), anti-ERK1/2 (Cell Signaling, 4695), anti-p-ERK1/2 (Invitrogen, 36880), anti-CREB (Cell Signaling, D76D11), anti-p-CREB (Millipore, 06-519), and mouse anti-c-Myc (Novus Biologicals, 9E10). Cultured hippocampal neuron images were acquired by LSM 510 laser scanning confocal microscope (Zeiss). Confocal zseries image stacks encompassing entire dendrite segments were analyzed using MetaMorph software (Universal Imaging Corporation, Downington, Pa., USA). […]

In a further test the test system is APP. The test is described as follows: APP processing in vivo (sAPPα, sAPPβ immunoblot). To be noted: 30 mg/kg i.p., 2 weeks. Also on record: species or system wild-type mice. The procedure:
To test whether BTA-EG4 alters Aβ production in vitro, primary cortical neurons were treated with BTA-EG4 (1 or 5 μM) or control (10% DMSO), and Aβ levels were measured using ELISA. […] We then examined whether BTA-EG4 can alter Aβ levels in vivo by injecting wild-type mice daily for 2 weeks with BTA-EG4 (15 or 30 mg/kg, 10% DMSO in saline, i.p.). […] Furthermore, BTA-EG4 altered APP processing in vivo, as monitored by increased sAPPα (α-secretase cleavage product) and decreased sAPPβ (β-secretase cleavage product) levels in BTA-EG4 injected wild-type mice (30 mg/kg, i.p) compared to control-injected mice (FIGS. 1E, 1F).
A general note: In western blotting, separated proteins are transferred to a membrane and probed.

A short description of test [3]: Morris Water Maze, 3× Tg AD mice. It is filed as in vivo. The following applies: for escape latency during training trials: 30 mg/kg daily, 2 weeks. The procedure: Morris Water Maze. To examine the effects of BTA-EG4 on learning and memory, we injected 2-3 month old, 6-10 month old, and 13-16 month old 3× Tg AD mice daily (i.p.) for 2 weeks before beginning behavioral testing as described previously (Minami et al., 2012). The control groupw as treated with vehicle solution (10% DMSO) while the experimental group was treated with BTA-EG4 (30 mg/kg) daily for 2 weeks. Animals were kept on a fixed 12 hour light-dark cycle, and behavioral experiments were conducted during the light portion of this cycle. Specifically, experiments began at 9:30 AM and concluded before 4:00 PM. Briefly, the amount of time required for animals to locate a Plexiglas platform submerged in opaque water was measured in a large circular pool. The animal was randomly placed into one of four quadrants separated by 90°, and the platform was hidden in one of these quadrants (14 in. from the wall). TOPSCAN software tracked the time required (latency, limited to 60 s) to locate the hidden platform, and animals failing to locate the platform within 60 s were gently guided to the platform. On the first trial, animals were allowed to remain on the platform for 15 s. All subsequent trials limited platform time to 10 s, and a probe trial (60 s) was administered 24 h after the final learning trial. Time spent in the quadrant where the platform was previously located and number of platform crossings were recorded during this probe trial. As a control, 12 h after the last trial, animals were required to locate a clearly visible black platform placed in a new location.

[4] abbreviates: 30 mg/kg i.p., probe trial day 5.

In the case of BTA-EG4, the dendritic spine density result in the test on dendritic spines (CA1 region of the hippocampus) was “significantly increased”. Besides, the dendritic spine density result in the test on dendritic spines (cortical layers II/III) is “significantly increased”. For the same substance, the “spine morphology (spine head width and spine length)” value in the test on dendritic spines (hippocampus CA1 and cortical layers II/III) is on record as “did not alter”. For the same substance, in test [1] (30 mg/kg i.p. daily), the “escape latency during training” value was “significantly reduced”. Besides, in test [1] (setting [4]), the “rate of platform crossing” value was “significantly higher rate” and the “time spent in the target quadrant” value is “spent more time”. The “path length to the escape platform” value in test [1] (30 mg/kg i.p., training trials) was “no difference”. Besides, the swim speed in test [1] (30 mg/kg i.p., CTRL=117±3.1 mm/s, p<0.01) is listed as 130±3.6 mm/s. Further, in test [2], the “number of puncta stained for PSD-95” value is “increased” and the “number of puncta stained for synaptophysin” value is “increased”. Also, in the test on APP, the sAPPα levels entry is given as “increased” and the sAPPβ levels entry was “decreased”. Besides, in test [3] (2-3 months), the swim speed entry is “without differing” and the “escape latency during training trials” value is on record as “significantly faster”. For the same substance, in test [3] (2-3 months, probe trials), the “percentage of time in the target quadrant” value is “greater percentage” and the platform crossings entry is on record as “more platform crossings”. Besides, the “escape latency during training trials” value in test [3] (6-10 months) is “faster”. Also, in test [3] (6-10 months, probe trials), the “number of platform crossings” value is listed as “without changes” and the “percentage of time spent in the target quadrant” value is on record as “significantly improved”. For the same substance, in test [3] (13-16 months), the “measured Morris Water Maze parameters (escape latency, swim speed, target quadrant time, platform crossings)” value is listed as “none of the measured parameters were significantly altered”.
